Assay results reported in patent US11491147B2, “Combination drug therapy reduces PARP-1 related DNA repair and increases the efficacy of genotoxic agents” (Indiana University Research and Technology Corporation, priority 2016, dated 2022).

Columns and labels:
TE activity of FASN = biological target: T1, TE activity of FASN (Homo sapiens, UniProt P49327); assay: TE activity assay using recombinant TE; type: biochemical
T1 construct: TE activity assay was performed also as previously described using recombinant TE (Fako et al., 2015)
T1 sequence (P49327 2207-2511 limits assumed): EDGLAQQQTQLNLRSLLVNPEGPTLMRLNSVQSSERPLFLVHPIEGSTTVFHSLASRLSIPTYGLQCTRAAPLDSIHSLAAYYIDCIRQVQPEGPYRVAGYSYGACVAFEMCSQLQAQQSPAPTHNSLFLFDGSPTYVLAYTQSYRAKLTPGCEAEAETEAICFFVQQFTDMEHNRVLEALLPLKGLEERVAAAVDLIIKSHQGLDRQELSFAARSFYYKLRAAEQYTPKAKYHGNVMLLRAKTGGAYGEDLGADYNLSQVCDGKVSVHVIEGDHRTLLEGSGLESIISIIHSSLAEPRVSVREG

MCF7 cells [1] = assay: Colony formation survival assay, MCF7 cells; type: cell-based, human; conditions: MCF7 cells; for IC50: Homo sapiens, single agent, colony formation, read-out: IC50, cell survival
Method: FIG. 15. […] B. Combination index. Combination index (CI) was derived using the data shown in A and the formula: […]
(§1) For each potency ratio, combination index of three effective concentrations at IC30, IC50, and IC70 were calculated for synergistic effects using Prism 7.0.
(§2) Cells were then harvested and re-plated in 6-well plates at a density of 200 cells/well followed by IR treatment at different doses and colony formation assay or collection of cells for Western blot analysis. Concentration-response curves and IC50 values were calculated using Prism 7.0 (GraphPad, La Jolla, USA).

MDA-MB-231 cells = assay: Colony formation survival assay, MDA-MB-231 cells; type: cell-based; conditions: Homo sapiens, single agent, read-out: IC50, cell survival
MDA-MB-468 cells [2] = assay: Colony formation survival assay, MDA-MB-468 cells; type: cell-based, human; conditions: pre-treated with 10 μM lansoprazole for 3 days
Method: as §1, §2

PARP1 expression = assay: Western blot of PARP1 expression in 4 breast cancer cell lines; type: cell-based, human; conditions: lansoprazole at different concentrations, all 4 cell lines
Source text: FIG. 18. Role of FASN in mediating PPI effect. A, Western blot analysis of FASN and PARP1 expression in MCF7 cells with ectopic FASN over-expression and in drug resistant MCF7/AdVp3000 (M3K) cells with FASN knockdown. […] E, Rescue of lansoprazole-induced reduction in NHEJ activity by ectopic FASN over-expression. […] G, Ablation of lansoprazole-induced γH2AX level increase by ectopic FASN over-expression as determined using Western blot analysis. Actin was used as loading control for all Western blot analyses.
FASN can regulate NHEJ repair activity by regulating PARP1 expression (Wu et al., 2017).
Cells were harvest and then lysed in TNN buffer with 1 mM DTT, 1 mM PMSF and 0.1% SDS for 30 min at 4° C. with occasional agitation. The cells were sonicated briefly and total proteins were harvested after centrifugation of the lysate at 16,000 g for 15 minutes at to remove cell debris. The protein concentration of cell lysates was determined using a Bio-Rad protein assay kit. […]

[3] = test system: NHEJ activity in MCF7 cells; assay: Host cell reactivation NHEJ assay, MCF7 cells; type: cell-based, human; conditions: 10 μM, three days
Method: (§3) The host cell reactivation NHEJ assay was carried out as previously described (Wu et al., 2017) with minor modifications. Briefly, 1×10^4 cells were seeded in 24-well plates, cultured overnight and then treated with 10 μM Lansoprzole or vehicle every day for three days before transfection with either linearized or intact pGL3-luc firefly luciferase plasmids (400 ng) using Lipofectamine 2000 (Invitrogen). pGL3-luc plasmid was linearized by HindIII digestion, and linearization was verified by DNA agarose gel electrophoresis before transfection. pRL-TK (Promega) plasmid which encodes renilla luciferase was co-transfected (400 ng) as a control for transfection efficiency. 8 hours after transfection, cells were harvested and assayed for luciferase activity with Dual Luciferase Assay (Promega) on a luminometer. Firefly luciferase signal were normalized to renilla luciferase signal in each group. Overall NHEJ activity was calculated by firefly luciferase activity from cells transfected with linearized plasmid relative to that of the intact plasmid.

[4] = test system: NHEJ activity in MDA-MB-468 cells; assay: Host cell reactivation NHEJ assay, MDA-MB-468 cells; type: cell-based, human; conditions: 10 μM, three days
Method: as §3

γ-H2AX in MCF7 cells = assay: Western blot of γ-H2AX, MCF7 cells; type: cell-based, human; conditions: lansoprazole alone
Method: (§4) Furthermore, the lansoprazole-induced γ-H2AX increase in MCF7 cells was ablated by over-expressing ectopic FASN (FIG. 18G).
(§5) Cells were harvest and then lysed in TNN buffer with 1 mM DTT, 1 mM PMSF and 0.1% SDS for 30 min at 4° C. with occasional agitation. The cells were sonicated briefly and total proteins were harvested after centrifugation of the lysate at 16,000 g for 15 minutes at to remove cell debris. The protein concentration of cell lysates was determined using a Bio-Rad protein assay kit. Total cell lysates were then separated by SDS-PAGE, transferred to a polyvinylidene fluoride membrane, and probed using antibodies against fatty acid synthase (610963, BD biosciences), PARP-1 (46D11, CST), γ-H2AX (05-636, Millipore), and (3-Actin (A2228, Sigma). The blot was then probed with horseradish peroxidase-conjugated secondary antibodies (Sigma) and signals were captured on X-ray films following developing with Amersham ECL Western Blotting Detection Reagent (RPN2106, GE).

[5] = test system: γ-H2AX in MDA-MB-468 cells; assay: Western blot of γ-H2AX, MDA-MB-468 cells; type: cell-based, human; conditions: lansoprazole alone
Method: as §4, §5

MCF7 cells [6] = assay: Apoptosis and cell cycle distribution, MCF7 cells; type: cell-based, human
Method: (§6) Cancer cells were plated in 6-well plates at a density of 2×10^5 cells/well, cultured overnight. […] Cells were washed with PBS and fixed ice cold 70% ethanol overnight. After centrifugation, pellets were resuspended in PBS, stained with propidium iodide solution for 30 min in the dark and analyzed by flow cytometry.

MDA-MB-468 cells [7] = assay: Apoptosis and cell cycle distribution, MDA-MB-468 cells; type: cell-based, human
Method: as §6

breast cancer patients = assay: Retrospective survival analysis of electronic medical records of breast cancer patients; type: in vivo, human
Method: FIG. 16. Retrospective survival analysis of breast cancer patients with or without use of proton pump inhibitors (PPIs). De-identified electronic medical records of 6,752 breast cancer patients were retrieved from the database of Indiana Network for Patient Care (INPC) and subjected to Kaplan-Meier survival analysis in association with PPI usage in all patients (A) or in triple negative breast cancer patient subgroup (B). The p-value and hazard ratio (HR) were calculated from Cox proportional hazard models, which were adjusted for age, tumor stage, and time of first diagnosis.
Because PPIs are widely used for treatment of a variety of acid-related digestive disorders, many cancer patients may use PPIs without the knowledge that the combination of PPIs with their chemotherapy may have helped them. To this end, a retrospective association analysis was conducted using de-identified electronic medical records (EMR) of 6,752 breast cancer patients from Indiana Network for Patient Care (INPC). The average age at diagnosis is 58.9 years (range 19-102) and average age at death or last visit is 61.5 (range 21-104). Of this cohort, 534 patients took one or more PPIs after diagnosis as recorded in the EMR. There are 488 triple negative breast cancer (TNBC) patients, among them 35 used PPIs. Using the Cox proportional hazard regression model, the patient overall survival was analyzed against PPI usage. […] The protective effect of PPIs on patient survival was adjusted for age, tumor stage, and time of first diagnosis.
The patient database contains three domains of electronic medical records (EMR) of 6,752 de-identified breast cancer patients from Indiana Network for Patient Care (INPC). The first domain contains patient characteristics as shown in Supplemental Table 51. The second domain contains medical test results including body weight, blood tests, and office visit information. The third domain contains prescription information for each patient. The use of this database has been approved by IRB at Indiana University for this study.
The first task is to remove null and duplicated values and to resolve contradicting records. For patients that have contradicting records, different rules for different conflicts were followed. For conflicts on the first visit or diagnosis time, the earlier record at younger age were used as the first diagnosis and considered the later one as system update. For all other information including diagnosis information such as cancer subtype, the latest record was used as it is thought to be more accurate.
Next, the plain text information from the first domain of the database including but not limited to ER, PR, and HER2 test results, treatment plans, and therapy types were digitized. The record that is not clear was marked as unknown. For example, the HER2 status with a 2+ score, a borderline score, from IHC staining was usually confirmed with FISH test. Patients with a 2+ score but without a FISH test result were considered unknown in this study.
Further, the days of patient survival from data in the first domain were validated using prescription history of the same patient in the third domain of the database. When there is a conflict, the last day of office visit or prescription refill, whichever is later, was recorded as the last day of visit or death. Moreover, patients who took PPIs prior to their diagnosis of breast cancer but stopped taking them after diagnosis were considered non-PPI users in this study.

[8] = test system: MCF7, T47D, MDA-MB-231, and MDA-MB-468 cells; assay: Colony formation survival assay, four breast cancer cell lines
Method: Next, tested whether PPIs inhibit survival of breast cancer cell lines with different levels of FASN expression (FIG. 17B) using colony formation assay.
Briefly, breast cancer cells were seeded in six-well plates at 200 cells/well and cultured overnight followed by treatments without or with PPIs at different concentrations for 14 days. The colonies formed were then washed with PBS, fixed in 100% methanol and stained with 0.5% crystal violet in 25% methanol. The stained colonies were counted manually and concentration-response curves with IC50 were generated using Prism 7.0 (GraphPad, La Jolla, USA).

M/FASN cells = assay: MTT survival assay, M/FASN cells; type: cell-based, human
Method: (§7) FIG. 5. PARP-1 mediates FASN-associated DNA repair and genotoxic treatment resistance. A-B, Effect of FASN on PARP-1 expression as determined by Western blot (A) and real-time RT-PCR (B) in stable FASN-over-expressing and -knockdown cells. C, Effect of FASN on IR-induced histone-H3 PARylation. Cells were pre-treated without or with 0.5 μM olaparib followed by treatment with or without IR and harvested at different times following IR for lysate preparation, immunoprecipitation of histone-H3 in the presence of 100 μM PARG inhibitor, gallotannin, and Western blot analyses of PARylated and total histone H3. D, Effect of PARP-1 knockdown on FASN-induced NHEJ up-regulation. FASN-over-expressing (P/FASN) and the control (P/Vec) cells were transiently transected with PARP-1 or scrambled control siRNA followed by Western blot analysis of PARP-1 (left panel) and NHEJ activity assay (right panel) (n=3, *p<0.05; **p<0.01). E, Effect of PARP-1 inhibition on survival. M/FASN cells were treated with 1 mM 3-ABA, 0.5 μM olaparib, or their vehicle control for 48 hours followed by MTT assay. F, Effect of PARP-1 inhibition on doxorubicin resistance. M/FASN cells were pre-treated for 6 hours by 1 mM 3-ABA, 0.5 μM olaparib, or transfected with control or PARP-1 siRNA followed by tested doxorubicin resistance using MTT survival assay. (n=3-4, *p<0.05, **p<0.01).
To determine if FASN enhancement of PARP-1 likely mediates FASN function in cellular resistance to DNA damages, a survival assay of […] cells following doxorubicin treatment in the absence or presence of PARP-1 inhibitors, 3-ABA (3-aminobenzamide) or olaparib was carried out. Now referring to FIG. 5E, either 1 mM 3-ABA or 0.5 μM olaparib alone had no effect on M/FASN cell survival.
MTT survival assay was performed as previously described (see e.g., Yang Y, Chen Q, & Zhang J T (2002) Structural and functional consequences of mutating cysteine residues in the amino terminus of human multidrug resistance-associated protein 1. J. Biol. Chem. 277(46):44268-44277). Briefly, cells in 96-well plate were cultured for 24 hours and treated with various concentrations of doxorubicin, bleomycin, cisplatin or H2O2 continuously for 3 days followed by addition of thiazolyl blue tetrazolium bromide (MTT) to a final concentration of 0.5 mg/mL and incubation at 37° C. for 4 hours. Medium was then removed and formazan was solubilized in dimethyl sulfoxide and the OD570 was measured by a Synergy H1 hybrid reader (BioTek, Winooski, Vt.). IC50's were obtained from the fitted curves generated by GraphPad Prism 5.0 program (GraphPad Software, Inc.). Relative resistance factor (RRF) is calculated using the formula RRF=IC50 (test)/IC50 (control) with control normalized as 1. […]

PARylated histone-H3 = assay: IR-induced histone-H3 PARylation, immunoprecipitation and Western blot; type: cell-based, human; conditions: pre-treatment with 0.5 μM olaparib, 5 Gy IR, P/FASN and P/Vec cells
Method: as §7, with “*p<0.05, **p<0.01). […]” for “*p<0.05, **p<0.01).”

Cc1c(OCC(F)(F)F)ccnc1C[S@@+]([O-])c1nc2ccccc2[nH]1 [R-lansoprazole]
inhibition of TE (Ki), R- versus S-enantiomer (TE activity of FASN): significantly more effective than the S-lansoprazole

Cc1c(OCC(F)(F)F)ccnc1C[S+]([O-])c1nc2ccccc2[nH]1 (stereo not shown) [lansoprazole]
IC50 (MCF7 cells [1]): 1.3 ± 0.7 µM | sensitization to IR treatment (MCF7 cells [1]; pre-treated with 10 μM lansoprazole for 3 days): sensitized | IC50 (MDA-MB-231 cells): 21.4 ± 4.1 µM | sensitization to IR treatment (MDA-MB-468 cells [2]): sensitized | PARP1 expression (PARP1 expression): dose-dependently reduced | NHEJ activity [3]: significantly reduced | NHEJ activity [4]: significantly reduced | level of γ-H2AX (γ-H2AX in MCF7 cells): increased the level of γ-H2AX in a dose-dependent manner | level of γ-H2AX [5]: increased the level of γ-H2AX in a dose-dependent manner | apoptosis (MCF7 cells [6]): dose-dependently induced apoptosis | cell cycle distribution (MCF7 cells [6]): cell cycle arrest at G1 | apoptosis (MDA-MB-468 cells [7]): dose-dependently induced apoptosis | cell cycle distribution (MDA-MB-468 cells [7]): S phase | HR (CoxPH ratio), overall survival (breast cancer patients; pairwise versus Omeprazole users, all patients): 0.68 | HR (CoxPH ratio), overall survival (breast cancer patients; single-PPI users versus No PPI, all breast cancer patients): 0.17 | HR, overall survival (breast cancer patients; versus No PPI, African American (AA) patients): 1.09*10^−7 | HR, overall survival (breast cancer patients; versus No PPI, Caucasian (CA) patients): 0.18 | HR, overall survival (breast cancer patients; versus Omeprazole, AA patients): 3.99*10^−9 | HR, overall survival (breast cancer patients; versus Omeprazole, CA patients): 0.81 | inhibition of breast cancer cell survival, comparison among PPIs [8]: the most effective one for all 4 cell lines

O=C(c1cc(Cc2n[nH]c(=O)c3ccccc23)ccc1F)N1CCN(C(=O)C2CC2)CC1 [olaparib]
IC50 (MCF7 cells [1]): 1 µM | effect on M/FASN cell survival (M/FASN cells; 1 mM 3-ABA or 0.5 μM olaparib alone, 48 hours): no effect | doxorubicin resistance level of M/FASN cells (M/FASN cells; pre-treated for 6 hours by 1 mM 3-ABA or 0.5 μM olaparib): significantly reduced | IR-induced PARylation of histone-H3 (PARylated histone-H3): inhibited IR-induced PARylation
